{"source": "patent US8278044B2", "about": "“Method for the identification of carcinogenic compounds” (priority 2008, dated 2012)", "key": {"HepG2 cells [1]": {"tested_on": "HepG2 cells", "assay": "Flow cytometric analysis of cell cycle", "format": "cell-based, human", "details": "3 μM BaP", "experimental": "(§1) Two independent experiments were conducted.\n(§2) Analyses of cell cycle profiles and apoptosis was performed as previously described using a FACSort (Becton Dickinson, Sunnyvale, USA) (29). For DNA content cells were stained with propidium iodide; apoptotic cells were visualised with the primary antibody M30 CytoDeath (Roche, Penzberg, Germany) and FITC conjugated anti-mouse Ig as secondary antibody (DakoCytomation, Glostrup, Denmark). For each sample 10,000 cells were analyzed. Cells in the G0-1, S or G2-M phase were expressed as a percentage of the total number of cells."}, "HepG2 cells [2]": {"tested_on": "HepG2 cells", "assay": "Flow cytometric analysis of apoptosis (M30 CytoDeath)", "format": "cell-based", "details": "human, 3 μM", "experimental": "as §1, §2"}, "HepG2 cells [3]": {"tested_on": "HepG2 cells", "assay": "Gene expression analyses with DNA microarrays (Agilent), Reactome and T-profiler", "format": "cell-based, human", "details": "3 μM BaP", "experimental": "Labelling and hybridisation of RNA samples was done according to Agilent's manual for microarrays (Agilent Technologies, Breda, The Netherlands). […] For each biological experiment, two hybridizations per time point were conducted, with swapped Cy3 and Cy5 dyes.\nThe images (10 micron resolution; 16 bit tiff) were processed with ImaGene 6.0 to quantify spot signals (BioDiscovery Inc., Los Angeles, USA). Irregular spots were automatically flagged and excluded from data analysis. Data from ImaGene were further processed with GeneSight 4.1.6 (BioDiscovery Inc., Los Angeles, USA). For each spot, background was subtracted and flagged spots as well as spots with a net expression level below 20 in both channels were omitted. Data were log base 2 transformed and LOWESS normalized. If for a gene more probes were on the array, replicates were averaged while omitting outliers (>2 standard deviations). Raw data are available at ArrayExpress (accession numbers E-TOXM-22 and E-TOXM-23, for the first and second experiment respectively) (www.ebi.ac.uk/arrayexpress/).\nSecond, genes were selected by ANOVA using the plug-in “Time series analysis” from BRB Array Tools (version 3.4 and R version 2.2.0; linus.nci.nih.gov/BRB-ArrayTools.html) with “Time” as descriptor.\nReactome (www.reactome.org; Version 25, August 2008) (45) is used to examine the biological processes that may be affected at the level of reactions and reaction pathways, a level of detail that cannot be obtained by gene ontology annotations, and KEGG and BioCarta pathways. Reactions are grouped into causal chains to form pathways. […] The ratio of these number of differentially genes per event with total numbers present in the set of 2808 genes, are used for visualisation of affected pathways. Rctions were ordered by main pathway and sub-pathway.\nT-profiler is used for functional annotation of pathways and processes in the complete data set of genes without pre-selecting modulated genes. T-profiler uses the unpaired t-test to score the difference between the mean expression level of predefined sets of genes and that of all other genes within the complete data set (46). […] Per experiment and time point t-values were determined for each gene set. Only gene sets with an absolute t-value>4 at at least 2 succeeding time points in both experiments were selected for further analyses."}}, "data": [{"smiles": "c1ccc2c(c1)cc1ccc3cccc4ccc2c1c34", "note": "[BaP, benzo[a]pyrene]", "values": [{"measurement": "duration of S-phase accumulation", "setting": "HepG2 cells [1]", "value": "6 to 18", "unit": "h"}, {"measurement": "time after which cell cycle distribution becomes similar to that of the controls", "setting": "HepG2 cells [1]", "value": "about 54 h"}, {"measurement": "S-phase cells", "setting": "HepG2 cells [1]; at 18 h, concomitant decrease of cells in G1 and G2 phases", "value": "drastic increase"}, {"measurement": "apoptotic cells levels", "setting": "HepG2 cells [2]", "value": "0.5-3%"}, {"measurement": "POLR2A expression (TC-NER)", "setting": "HepG2 cells [3]", "value": "upregulated at early time points"}, {"measurement": "POLR2D expression (TC-NER)", "setting": "HepG2 cells [3]", "value": "downregulated at late time points"}, {"measurement": "base excision repair and global genomic repair pathways", "setting": "HepG2 cells [3]", "value": "induced from 9/12 h until 60 h"}, {"measurement": "period of upregulation of DDB2 (GG-NER)", "setting": "HepG2 cells [3]", "value": "9 to 60", "unit": "h"}, {"measurement": "period of upregulation of GC-NER (global genomic NER) reaction pathway", "setting": "HepG2 cells [3]", "value": "9 to 60", "unit": "h"}, {"measurement": "period of upregulation of TC-NER reaction pathway", "setting": "HepG2 cells [3]", "value": "9 to 42", "unit": "h"}]}]}
